Here are results for 16 compounds from publication PMC10790670 (Environmental science & technology, 2023).

Where “and” joins values, the source holds several entries; their conditions need not be identical. Identical values can stand only once. Like-named read-outs stand apart in the source and are kept apart here. Marks after values point to notes of the source that are not given here.

The conditions of data set [1]: predicted values from EPA Chemistry Dashboard; cited from earlier work.
For data set [2] the following is noted: cited from earlier work; for published half-lives: biological half-lives quoted in abstract.
Data set [3] in a line: Serum PFAS measurement by LC-HRMS, GenX Exposure Study participants. The following applies: human, in vivo.
For data set [4] the following is noted: experimental values from EPA Chemistry Dashboard; cited from earlier work.
For data set [5] the following is noted: both, human, in vivo.
Setting [6] is: weighted average, ref Zhang et al. 16.
The mark [7] stands for this setting: literature serum half-life, ref Li et al. 19.
[8] abbreviates: literature serum half-life, ref Li et al. 12.

Usually half-life stands for how long it takes for the measured level to halve. As for `O=C(O)C(F)(OC(F)(F)C(F)(F)C(F)(F)F)C(F)(F)F` (stereo not shown) [GenX, hexafluoropropylene oxide dimer acid], the logKow in data set [1] is 5.13^a. The half-life is 81 h in data set [2] (in workers, ECHA estimate); 3.375^f days and 3.38^e days in data set [2] (values from ECHA report).
In the case of `O=S(=O)(O)C(F)(F)C(F)(F)OC(F)C(F)(F)F` (stereo not shown) [NVHOS, 1,1,2,2-tetrafluoro-2-(1,2,2,2-tetrafluoroethoxy)ethanesulfonic acid], the concentration at 5 months in data set [3] is 1.14 ng/mL. Moreover, the logKow in data set [1] is listed as 2.58^a.
For the compound `O=S(=O)(O)C(F)(F)C(F)(F)C(F)(F)C(F)(F)F` [PFBS, perfluorobutanesulfonic acid], the half-life in data set [2] (ref Olsen et al. 54) is recorded as 26^h days. In data set [4], the logKow is 2.76^b.
For the compound `O=C(O)C(F)(F)C(F)(F)C(F)(F)C(F)(F)C(F)(F)C(F)(F)C(F)(F)C(F)(F)C(F)(F)F` [PFDA], the half-life in data set [2] (setting [6]) is reported as 3743^i days. Also, the logKow in data set [4] is 4.15^b.
Regarding `O=C(O)C(F)(F)C(F)(F)C(F)(F)C(F)(F)C(F)(F)C(F)(F)F` [PFHpA, perfluoroheptanoic acid], the published half-lives in data set [2] is 30 to 60 days. In data set [2] (setting [6]), the half-life is on record as 464^i days. Besides, in data set [4], the logKow was 2.05^b.
Regarding `O=S(=O)(O)C(F)(F)C(F)(F)C(F)(F)C(F)(F)C(F)(F)C(F)(F)C(F)(F)F` [PFHpS], the logKow in data set [1] is listed as 4.85^a. Also, the half-life in data set [2] (setting [7]) is on record as 533^e days.
As for `O=C(O)C(F)(F)C(F)(F)C(F)(F)C(F)(F)C(F)(F)F` [PFHxA, perfluorohexanoic acid], the logKow in data set [1] is 2.8^a. In data set [2], the published half-lives was 30 to 60 days. Also, in data set [2] (ref Russel et al. 52), the half-life is given as 32^g days.
Turning to `O=S(=O)(O)C(F)(F)C(F)(F)C(F)(F)C(F)(F)C(F)(F)C(F)(F)F` [PFHxS, perfluorohexanesulfonic acid], the logKow in data set [1] is recorded as 3.48^a. For the same compound, in data set [2] (setting [7]), the half-life is 1661^e days.
`O=C(O)C(F)(F)C(F)(F)C(F)(F)C(F)(F)C(F)(F)C(F)(F)C(F)(F)C(F)(F)F` [PFNA, perfluorononanoic acid]: the half-life in data set [2] (setting [6]) is on record as 1417^i days. For the same compound, in data set [4], the logKow is 3.54^b.
`O=C(O)C(F)(F)OC(F)(F)OC(F)(F)OC(F)(F)F` [PFO3OA, perfluoro-3,5,7-trioxaoctanoic acid] gave a concentration at 5 months in data set [3] of 1.02 ng/mL. Besides, the logKow in data set [1] was 6.07^a.
Consider `O=C(O)C(F)(F)OC(F)(F)OC(F)(F)OC(F)(F)OC(F)(F)F` [PFO4DA, perfluoro-3,5,7,9-tetraoxadecanoic acid], for which, in data set [5], the “effect of age on concentration” value is on record as 0.0129 ng/mL/year and the “effect of gender concentration in males” value worked out at 0.376 ng/mL. Besides, in data set [3], the concentration at 5 months was 5.6 ng/mL and the concentration at 11 months was determined as 1.16 ng/mL. Besides, the logKow in data set [1] is given as 8.53^a.
Turning to `O=C(O)C(F)(F)OC(F)(F)OC(F)(F)OC(F)(F)OC(F)(F)OC(F)(F)F` [PFO5DoA, perfluoro-3,5,7,9,11-pentaoxadodecanoic acid], in data set [5], the “effect of age on concentration” value is listed as 0.0160 ^* ng/mL/year and the “effect of gender concentration in males” value came to 0.298 ng/mL. In data set [3], the concentration at 5 months came out at 12.4 ng/mL and the concentration at 11 months was found to be 8.91 ng/mL.
In the case of `O=C(O)C(F)(F)C(F)(F)C(F)(F)C(F)(F)C(F)(F)C(F)(F)C(F)(F)F` [PFOA, perfluorooctanoic acid], the published half-lives in data set [2] was 800 to 1200 days. Also, the half-life is 902^c days in data set [2] (setting [8]) and 902^e days in data set [2] (setting [7]). For the same compound, the logKow in data set [4] was 3.1^b.
For `O=S(=O)(O)C(F)(F)C(F)(F)C(F)(F)C(F)(F)C(F)(F)C(F)(F)C(F)(F)C(F)(F)F` [PFOS, perfluorooctanesulfonic acid], the published half-lives in data set [2] was 800 to 1200 days. The half-life in data set [2] (setting [8]) is on record as 1241^d days. Also, the logKow in data set [4] is recorded as 5.61^b.
In the case of `O=S(=O)(O)C(F)(F)C(F)(F)C(F)(F)C(F)(F)C(F)(F)F` [PFPeS], the logKow in data set [1] was 3.38^a. In addition, in data set [2] (setting [7]), the half-life is reported as 343^e days.
For the compound `O=C(O)C(F)(F)C(F)(F)C(F)(F)C(F)(F)C(F)(F)C(F)(F)C(F)(F)C(F)(F)C(F)(F)C(F)(F)F` [PFUnA], the half-life in data set [2] (setting [6]) is recorded as 3743^i days. For the same compound, in data set [4], the logKow was 4.00^b.
